This is an account of results in PMC2895808 (Vaccine, 2010).

One may read the IC50 as the concentration that gives 50% inhibition. A higher IC50 goes with a need for much substance.

Ends that are not written are not given here. Where only a bound is given, the exact number is not on record here.

Experiment in all cases: biochemical
Assay [1] deals with HLA A*0202 (Homo sapiens, UniProt P04439, D140Y/D185E/D98H/E176V/E277Q/G131W/G231S/I119L/I121R/I166T/I218V/L180W/L300P/L318F/N151K/N90K/P208A/P217A/Q67R/Q86G/Q94H/R138H/R169H/T345S).
In assay [2] the target is HLA A*6802 (Homo sapiens, UniProt P04439, A269V/D140Y/D185E/E176V/E277Q/E87N/F33Y/G231S/I121R/I166T/I218V/L180W/L300P/L318F/N151K/P208A/P217A/Q86R/R138H/R169H/S129P/T345S/V36M).
Assay [3] concerns the target HLA A*0203 (Homo sapiens, UniProt P04439, A173T/D140Y/D185E/D98H/E277Q/G131W/G231S/I119V/I121R/I166T/I218V/L180W/L300P/L318F/N151K/N90K/P208A/P217A/Q86G/Q94H/R138H/R169H/T345S).
Assay [4] concerns the target HLA B*4201 (Homo sapiens, UniProt P01889, D138N/E176V/E187T/K202T/R180D).
For assay [5], the target named is HLA B*0702 (Homo sapiens, UniProt P01889).
Assay [6] addresses HLA B*3503 (Homo sapiens, UniProt P01889, A329T/A93T/A95T/C349S/D201E/D98Y/E176V/E187L/E204Q/E69T/I218V/K202T/L119I/Q94N/R155S/R180L/S121R/S35A/S48A/T118I/V127L/V306I/V36M/Y140F/Y91F).
The target in assay [7] is HLA B*5301 (Homo sapiens, UniProt P01889, A329T/A93T/A95T/C349S/D201E/D98Y/E176V/E187L/E204Q/E69T/G107R/I218V/K202T/L105A/L119I/N104I/Q94N/R106L/R155S/R180L/S101N/S121R/S35A/S48A/T118I/V127L/V306I/V36M/Y140S/Y91F).
Assay [8] addresses HLA B*5401 (Homo sapiens, UniProt P01889, A329T/C349S/D138N/D201E/E176V/E187T/E204Q/E69G/I76V/K202T/L119W/R155S/R180L/S121T/S35A/S48A/V127L/V306I/V36M/Y140L).
The target of assay [9] is HLA B*5101 (Homo sapiens, UniProt P01889, A329T/A93T/A95T/C349S/D138N/D201E/D98Y/E187L/E204Q/E69T/G107R/I218V/K202T/L105A/L119W/N104I/Q94N/R106L/R155S/R180L/S101N/S121T/S35A/S48A/V306I/V36M/Y195H/Y91F).
Assay [10] deals with HLA B*3501 (Homo sapiens, UniProt P01889, A329T/A93T/A95T/C349S/D201E/D98Y/E176V/E187L/E204Q/E69T/I218V/K202T/L119I/Q94N/R155S/R180L/S121R/S35A/S48A/T118I/V127L/V306I/V36M/Y140S/Y91F).

In the case of `CSCC[C@H](NC(=O)[C@H](Cc1ccccc1)NC(=O)[C@@H](NC(=O)[C@@H](NC(=O)[C@H](Cc1ccccc1)NC(=O)[C@@H](NC(=O)[C@@H](N)C(C)C)C(C)C)C(C)C)C(C)C)C(=O)NCC(=O)N[C@H](C(=O)O)C(C)C` [Peptide 7103.0001], the IC50 in [1] came to 3.45 µM; in assay [2], 0.039 µM.

Regarding `CC(C)C[C@H](NC(=O)[C@H](Cc1ccccc1)NC(=O)[C@@H](NC(=O)[C@@H](NC(=O)[C@H](Cc1ccccc1)NC(=O)[C@@H]1CCCN1C(=O)[C@@H](NC(=O)[C@H](CC(C)C)NC(=O)[C@@H](N)Cc1ccccc1)C(C)C)C(C)C)C(C)C)C(=O)O` [Peptide 7103.0003], the IC50 was under 0.0001 µM in assay [1], 0.0015 µM in assay [2] and 0.00011 µM in [3].

For the molecule HPGSVNEFDF [HF10], the IC50 was 0.877 µM in assay [4]; 3.62 µM in assay [5]; 11.5 µM in assay [6]; 5.52 µM in assay [7]; 0.854 µM in assay [8]; 14.7 µM in assay [9]. The same molecule returned an IC50 in [10] of 2.09 µM.
